Laboratory results published in patent publication EP0565593B1, “REDUCING PESTICIDAL INTERACTIONS IN CROPS” (priority 1990, dated 1992).
Where two headings read alike, the source gives them in different places.

Assays:
Velvetleaf (VELE) [1] = experiment: whole plant or invertebrate; type: in vivo, Abutilon theophrasti; conditions: for inhibition at 140 g/ha: Abutilon theophrasti, iv, Herbicide No. 18 0.14 Kg/Ha, all PPI
SJCA = experiment: Greenhouse test Procedure IV: herbicide, biocide and antidote PPI, weed SJCA (Examples 53-55; Tables 52-54); type: in vivo; conditions: for inhibition at 140 g/ha: Herbicide No. 18 0.14 Kg/Ha, all PPI
Excerpt: The test in this example paralleled that in Example 51, except the procedure was according to Procedure IV above and the herbicides used were No. 1 (MON-12000); No. 21 (XRD-498) and, again, No. 18 (PURSUIT); the biocide was, again, MOCAP®. Observations were taken thirteen (13) days after PPI treatment with biocide and antidote.
This test was identical to that in Example 52, except for use of a different biocide, DIAZINON (Biocide No. 5, a nematicide and soil insecticide).
This test was also identical to that in the preceding two examples, except that the biocide was malathion (No. 7, an insecticide).
This test was identical to the preceding ones, except the biocide was DPX-43898 (No. 6, active ingredient in FORTRESS® insecticide, a soil insecticide). Also, the observation time was fourteen (14) days after PPI initiation.

Corn [2] = test system: Corn
Corn [3] = experiment: Greenhouse test Procedure II: herbicide, insecticide and antidote incorporated in cover layer (Example 4; Table 4); type: in vivo; conditions: 3 weeks
Protocol: (§1) Containers were filled and compacted with a fumigated silt loam top soil to a depth of about 1.3 cm from the top of the container. A first container was designated as an untreated control, a second container was designated as a herbicide control, and a third container was designated as a herbicide + antidote test container. Each of the containers was seeded with a crop species. A measured amount of herbicide dispersed or dissolved in acetone was applied to a measured quantity of soil. To this same quantity of soil treated with herbicide, there was added a measured amount of antidote dispersed or dissolved in acetone. The quantity of soil treated with the herbicide and antidote was thoroughly mixed to incorporate the herbicide and antidote in the soil uniformly. The seed bed in the third container of soil was covered with the soil treated with the herbicide and antidote and the container was leveled. For each test series, the seed beds of the first and second containers were likewise covered by soil layers. the cover layer of the first container was not treated with herbicide or antidote.
(§2) This procedure is the same as Procedure I, but modified in the manner that after incorporation of the chemicals (herbicide, antidote and insecticide), the containers with the covered seedbed were treated with an initial overhead irrigation equivalent to 0.6 cm rainfall, then subsequently sub-irrigated as required on greenhouse benches.
(§3) The procedure used in this test was Procedure No. 2 above. Formulations of herbicide, insecticide and antidote were applied via track sprayer sequentially onto cover layers, incorporated into the soil which was spread over seedbeds, then irrigated from above with 0.6 cm water. Observations were made three (3) weeks after treatment.

VELE (velvetleaf) = experiment: Greenhouse test Procedure II (Example 4; Table 4); type: in vivo, Abutilon theophrasti; conditions: 3 weeks
Protocol: as §1, §2, §3

Shattercane (SHCA) = type: in vivo
Velvetleaf (VELE) [4] = type: in vivo, Abutilon theophrasti
Giant foxtail (GIFT) = experiment: whole plant or invertebrate; type: in vivo; conditions: Setaria faberi, iv, 312 h, Table 51; Herbicide No. 18 0.14 Kg/Ha; where applied Biocide No. 8 8.96 kg/Ha and antidote 4.48 Kg/Ha; all PPI; observed 13 days after treatment
Corn [5] = test system: Corn; remark: listed apart in the source
Corn [6] = experiment: whole plant or invertebrate; conditions: Zea mays, iv, Herbicide No. 18 0.14 Kg/Ha, all PPI
[7] = Table 54, Biocide No. 6 alone 8.96 kg/Ha PPI, observed 14 days after PPI initiation
[8] = Table 52, Biocide No. 5 alone 8.96 kg/Ha PPI, observed 13 days after treatment
[9] = Table 53, Biocide No. 7 alone 8.96 kg/Ha PPI, observed 13 days after treatment
[10] = Insecticide 2 3.36 + Herbicide 4 0.07 kg/Ha
[11] = Insecticide 2 3.36 + Herbicide 4 0.14 kg/Ha
[12] = Insecticide 2 3.36 + Herbicide 6 0.07 kg/Ha
[13] = Insecticide 2 3.36 + Herbicide 6 0.14 kg/Ha
[14] = Insecticide 2 3.36 + Herbicide 5 0.07 kg/Ha
[15] = Insecticide 2 3.36 + Herbicide 5 0.14 kg/Ha
[16] = Herbicide No. 18 0.0175 Kg/Ha POE alone, Table 17
[17] = Herbicide No. 18 0.0175 Kg/Ha POE alone, Table 18
[18] = Herbicide No. 18 alone, POE 5 DAP, observed 13 DAP
[19] = no antidote, […], observed 10 days after herbicide application
[20] = 312 h, Table 52, where applied Biocide No. 5 8.96 kg/Ha and antidote 4.48 Kg/Ha, observed 13 days after treatment
[21] = 336 h, Table 54, where applied Biocide No. 6 8.96 kg/Ha and antidote 4.48 Kg/Ha, observed 14 days after PPI initiation

With `CCOP(=S)(OCC)OC(Cl)C(Cl)(Cl)Cl` (centres unmarked) [Biocide No. 6, O,O-Diethyl-O-1,2,2,2-tetrachloroethyl phosphorothioate, reference compound] the “% Inhibition VELE” value (Velvetleaf (VELE) [1]; [7]) was 0%, the “% Inhibition SJCA” value (SJCA; [7]) was 0% and the “% Inhibition Corn” value (Corn [2]; [7]) was 0%.
With `CCOP(=S)(OCC)Oc1cc(C)nc(C(C)C)n1` [Biocide No. 5, O,O-Diethyl (-(2-isopropyl-4-methyl-6-pyrimidinyl phosphorothioate, reference compound] the “% Inhibition VELE” value (Velvetleaf (VELE) [1]; [8]) was 25%, the “% Inhibition SJCA” value (SJCA; [8]) was 50% and the “% Inhibition Corn” value (Corn [2]; [8]) was 0%.
With `CCOC(=O)CC(SP(=S)(OC)OC)C(=O)OCC` (centres unmarked) [Biocide No. 7, O,O-Dimethyl phosphorothioate of diethyl mercaptosuccinate, reference compound] the “% Inhibition VELE” value (Velvetleaf (VELE) [1]; [9]) was 0%, the “% Inhibition SJCA” value (SJCA; [9]) was 0% and the “% Inhibition Corn” value (Corn [2]; [9]) was 0%.
For “2-Thiophenecarboxylic acid, 3-[[[[(4,6-dimethoxy-1,3,5-triazin-2-yl)amino]carbonyl]amino]sulfonyl]-, methyl ester [Herbicide No. 4]”, the “% Injury Corn” value (Corn [3]; Herbicide 4 0.07 kg/Ha) was 15%, the “% Injury Corn” value (Corn [3]; Herbicide 4 0.14 kg/Ha) was 38% and the “% Injury Corn” value (Corn [3]; [10]) was 83%. For the same molecule, the “% Injury Corn” value (Corn [3]; [11]) was 80%, the “% Injury VELE” value (VELE (velvetleaf); Herbicide 4 0.07 kg/Ha) was 10% and the “% Injury VELE” value (VELE (velvetleaf); Herbicide 4 0.14 kg/Ha) was 52%. The “% Injury VELE” value (VELE (velvetleaf); [10]) was 55% and the “% Injury VELE” value (VELE (velvetleaf); [11]) was 5%.
With `CCc1cnc(C2=NC(C)(C(C)C)C(=O)N2)c(C(=O)O)c1` (centres unmarked) [Herbicide No. 6, 3-Pyridinecarboxylic acid, 2-[4,5-dihydro-4-methyl-4-(1-methylethyl)-5-oxo-1H-imidazol-2-yl]5-ethyl] the “% Injury Corn” value (Corn [3]; Herbicide 6 0.07 kg/Ha) was 2%, the “% Injury Corn” value (Corn [3]; Herbicide 6 0.14 kg/Ha) was 23% and the “% Injury Corn” value (Corn [3]; [12]) was 65%. For the same molecule, the “% Injury Corn” value (Corn [3]; [13]) was 43%, the “% Injury VELE” value (VELE (velvetleaf); Herbicide 6 0.07 kg/Ha) was 33% and the “% Injury VELE” value (VELE (velvetleaf); Herbicide 6 0.14 kg/Ha) was 32%. The “% Injury VELE” value (VELE (velvetleaf); [12]) was 30% and the “% Injury VELE” value (VELE (velvetleaf); [13]) was 20%.
With `CCOC(=O)c1ccccc1S(=O)(=O)NC(=O)Nc1nc(Cl)cc(OC)n1` [Herbicide No. 5, Benzoic acid, 2-[[[[(4-chloro-6-methoxy-2-pyrimidin-2-yl)amino]carbonyl]amino]sulfonyl]ethyl ester] the “% Injury Corn” value (Corn [3]; Herbicide 5 0.07 kg/Ha) was 88%, the “% Injury Corn” value (Corn [3]; Herbicide 5 0.14 kg/Ha) was 92% and the “% Injury Corn” value (Corn [3]; [14]) was 95%. For the same molecule, the “% Injury Corn” value (Corn [3]; [15]) was 98%, the “% Injury VELE” value (VELE (velvetleaf); Herbicide 5 0.07 kg/Ha) was 57% and the “% Injury VELE” value (VELE (velvetleaf); Herbicide 5 0.14 kg/Ha) was 77%. The “% Injury VELE” value (VELE (velvetleaf); [14]) was 83% and the “% Injury VELE” value (VELE (velvetleaf); [15]) was 70%.
In the case of `CC(C)C1(C)N=C(c2ncccc2C(=O)O)NC1=O` (centres unmarked) [Herbicide No. 18, 3-Pyridinecarboxylic acid, 2-[4,5-dihydro-4-methyl-4-(1-methylethyl)-5-oxo-1H-imidazol-2-yl]-, reference compound], the “% Inhibition SHCA” value (Shattercane (SHCA); [16]) is reported as 65%, the “% Inhibition SHCA” value (Shattercane (SHCA); [17]) is reported as 45% and the “% Inhibition SHCA” value (Shattercane (SHCA); [18]) is reported as 20%. For the same molecule, the “% Inhibition SHCA” value (Shattercane (SHCA); Table 50, Herbicide No. 18 0.017 Kg/Ha POE, where applied Biocide No. 8 8.96 kg/Ha and antidote 4.48 Kg/Ha PPI, observed 9 days after POE) was 40%, the “% Inhibition SHCA” value (Shattercane (SHCA); [19]) was 60% and the “% Inhibition VELE” value (Velvetleaf (VELE) [4]; [16]) was 80%. The “% Inhibition VELE” value (Velvetleaf (VELE) [4]; [17]) was 85%, the “% Inhibition VELE” value (Velvetleaf (VELE) [4]; in vivo) was 80% and the “% Inhibition VELE” value (Velvetleaf (VELE) [4]; [19]) was 80%. It also gave an inhibition at 140 g/ha (Giant foxtail (GIFT)) of 75%, an inhibition at 140 g/ha (Velvetleaf (VELE) [1]; 312 h, Table 51, where applied Biocide No. 8 8.96 kg/Ha and antidote 4.48 Kg/Ha, observed 13 days after treatment) of 65% and an inhibition at 140 g/ha (Velvetleaf (VELE) [1]; [20]) of 75%. For the same molecule, the inhibition at 140 g/ha (Velvetleaf (VELE) [1]; [21]) was 70%, the inhibition at 140 g/ha (SJCA; [20]) was 75% and the inhibition at 140 g/ha (SJCA; 312 h, Table 53, where applied Biocide No. 7 8.96 kg/Ha and antidote 4.48 Kg/Ha, observed 13 days after treatment) was 70%. For the same molecule, the inhibition at 140 g/ha (SJCA; [21]) was 75%, the “% Inhibition Corn” value (Corn [5]; [16]) was 15% and the “% Inhibition Corn” value (Corn [5]; [17]) was 10%. For the same molecule, the “% Inhibition Corn” value (Corn [5]; [18]) was 5%, the inhibition at 140 g/ha (Corn [6]; 312 h, read-out: % Inhibition Corn, Table 51, where applied Biocide No. 8 8.96 kg/Ha and antidote 4.48 Kg/Ha, observed 13 days after treatment) was 15% and the inhibition at 140 g/ha (Corn [6]; 312 h, read-out: % Inhibition Corn, Table 52, where applied Biocide No. 5 8.96 kg/Ha and antidote 4.48 Kg/Ha, observed 13 days after treatment) was 10%. It also gave an inhibition at 140 g/ha (Corn [6]; 312 h, read-out: % Inhibition Corn, Table 53, where applied Biocide No. 7 8.96 kg/Ha and antidote 4.48 Kg/Ha, observed 13 days after treatment) of 15% and an inhibition at 140 g/ha (Corn [6]; 336 h, read-out: % Inhibition Corn, Table 54, where applied Biocide No. 6 8.96 kg/Ha and antidote 4.48 Kg/Ha, observed 14 days after PPI initiation) of 15%.
